Our source for the IC50, Activity and Kb values is ChEMBL document CHEMBL4411308, “Design, synthesis and biological evaluation of novel benzo- and tetrahydrobenzo-[h]quinoline derivatives as potential DNA-intercalating antitumor agents” (Eur J Med Chem, 2019).

Assay [1] has as its system A2780. Nature of the assay: Cytotoxicity against human A2780 cells assessed as inhibition of cell proliferation after 48 hrs by MTT assay. In kind it is functional, cell-based. The following applies: A2780, 48 h. (Tetrazolium assays rely on reduction of a dye to a coloured formazan, in cell work by metabolically active cells.)
Assay [2] concerns MCF7. Description: Cytotoxicity against human MCF7 cells assessed as inhibition of cell proliferation after 48 hrs by MTT assay. The following applies: MCF7, 48 h. The class given is functional, cell-based.
Assay [3] has as its system A549. Nature of the assay: Cytotoxicity against human A549 cells assessed as inhibition of cell proliferation after 48 hrs by MTT assay. The settings on record: A549, 48 h. In kind it is functional, cell-based.
Assay [4] is described as follows: Cytotoxicity against mouse C26 cells assessed as inhibition of cell proliferation after 48 hrs by MTT assay. The class given is functional, cell-based. The following applies: C26, 48 h.
In assay [5] the test system is A549. Nature of the assay: Induction of apoptosis in human A549 cells assessed as late apoptotic cells at 1 uM after 24 hrs by Annexin V-FITC/propidium iodide staining based flow cytometry (reference value: 0.462%). The class given is functional. For orientation: A flow cytometer gives signals particle by particle.
In assay [6] the test system is A549. Nature of the assay: Induction of apoptosis in human A549 cells assessed as live cells at 1 uM after 24 hrs by Annexin V-FITC/propidium iodide staining based flow cytometry (reference value: 98.4%). In kind it is functional.
For assay [7], the system named is A549. Description: Induction of apoptosis in human A549 cells assessed as early apoptotic cells at 1 uM after 24 hrs by Annexin V-FITC/propidium iodide staining based flow cytometry (reference value: 0.886%). In kind it is functional.
Assay [8] relates to A549. Description: Induction of apoptosis in human A549 cells assessed as necrotic cells at 1 uM after 24 hrs by Annexin V-FITC/propidium iodide staining based flow cytometry (reference value: 0.231%). In kind it is functional.
Assay [9] concerns Calf thymus DNA. Nature of the assay: Binding affinity to calf thymus DNA by UV-vis absorption spectrophotometric method. The settings on record: Bos taurus. In kind it is nucleic-acid assay.
Assay [10] concerns Calf thymus DNA. Description: Binding affinity to calf thymus DNA by fluorescence spectroscopic method. The class given is nucleic-acid assay. The following applies: Bos taurus.
Assay [11] relates to A549. Nature of the assay: Induction of apoptosis in human A549 cells after 24 hrs by Annexin V-FITC/propidium iodide staining based flow cytometry. The class given is functional, cell-based.
In assay [12] the test system is A549. Description: Induction of apoptosis in human A549 cells assessed as necrotic cells at 10 uM after 24 hrs by Annexin V-FITC/propidium iodide staining based flow cytometry (reference value: 0.231%). In kind it is functional.
For assay [13], the system named is A549. Description: Induction of apoptosis in human A549 cells assessed as live cells at 10 uM after 24 hrs by Annexin V-FITC/propidium iodide staining based flow cytometry (reference value: 98.4%). In kind it is functional.
The test system of assay [14] is A549. Description: Induction of apoptosis in human A549 cells assessed as early apoptotic cells at 5 uM after 24 hrs by Annexin V-FITC/propidium iodide staining based flow cytometry (reference value: 0.886%). In kind it is functional.
For assay [15], the system named is A549. Description: Induction of apoptosis in human A549 cells assessed as necrotic cells at 5 uM after 24 hrs by Annexin V-FITC/propidium iodide staining based flow cytometry (reference value: 0.231%). In kind it is functional.
The subject of assay [16] is A549. Nature of the assay: Induction of apoptosis in human A549 cells assessed as late apoptotic cells at 5 uM after 24 hrs by Annexin V-FITC/propidium iodide staining based flow cytometry (reference value: 0.462%). The class given is functional.
Assay [17] has as its system A549. Nature of the assay: Induction of apoptosis in human A549 cells assessed as early apoptotic cells at 10 uM after 24 hrs by Annexin V-FITC/propidium iodide staining based flow cytometry (reference value: 0.886%). The class given is functional.
Assay [18] relates to A549. Nature of the assay: Induction of apoptosis in human A549 cells assessed as late apoptotic cells at 10 uM after 24 hrs by Annexin V-FITC/propidium iodide staining based flow cytometry (reference value: 0.462%). The class given is functional.
Assay [19] concerns A549. Description: Induction of apoptosis in human A549 cells assessed as live cells at 5 uM after 24 hrs by Annexin V-FITC/propidium iodide staining based flow cytometry (reference value: 98.4%). The class given is functional.

What is called IC50 is the midpoint of a concentration-inhibition curve. For `CN(C)CCNC(=O)c1cc(-c2ccccn2)nc2c3c(ccc12)CCCC3`, the IC50 is 14.8 µM in assay [1], 16.6 µM in assay [2], 60.1 µM in [3] and 50 µM in [4].
Take `COc1cccc2c1C(=O)c1c(O)c3c(c(O)c1C2=O)C[C@@](O)(C(=O)CO)C[C@@H]3O[C@H]1C[C@H](N)[C@H](O)[C@H](C)O1` [DOXORUBICIN]: the Activity in assay [5] is recorded as 11.1%; in assay [6], 31%; in assay [7], 2.19%; in assay [8] it was 55.8%. Also, the IC50 came out at 0.123 µM in assay [1], 0.5 µM in [2] and 0.766 µM in assay [3].
Turning to `COc1ccc(-c2cc(C(=O)NCCN(C)C)c3ccc4ccccc4c3n2)cc1`, the values for the Kb in assay [9] and in assay [10] were 2 ×10⁴ No_unit and 7.4 ×10⁴ No_unit, respectively. Besides, the IC50 in [1] is 14.2 µM; in [2], 37.4 µM; in assay [3] it was 20.2 µM; in assay [4], 2.41 µM.
Molecule `CC(=O)Nc1ccc(-c2cc(C(=O)NCCN(C)C)c3ccc4c(c3n2)CCCC4)cc1` showed a Kb in [9] of 2 ×10⁴ No_unit. The Activity result was “Dose-dependent effect” in assay [11]; 0.34% in [12]; 53% in [13]; 27.5% in assay [14]; 1.22% in assay [15]; 7.58% in assay [16]. The Activity worked out at 46.4% in assay [17], 0.34% in assay [18] and 63.7% in assay [19]. In addition, the IC50 in [1] was found to be 1.86 µM; in assay [2], 2.69 µM; in [3], 1.9 µM; in assay [4], 3.91 µM.
`Cc1ccc(-c2cc(C(=O)NCCN(C)C)c3ccc4c(c3n2)CCCC4)cc1`: the Kb in assay [9] worked out at 1.75 ×10⁴ No_unit; in assay [10] it was 6.4 ×10⁴ No_unit. In addition, the Activity result is “Dose-dependent effect” in assay [11]; 0.01% in [12]; 54.9% in [13]; 1.13% in assay [14]; 1.02% in assay [15]; 0.093% in assay [16]. For the same molecule, the Activity was 44.4% in assay [17], 0.72% in [18] and 97.8% in [19]. In addition, the IC50 in assay [1] came out at 2.13 µM; in [2], 2.29 µM; in assay [3], 3.89 µM; in [4], 2.33 µM.
For `CN(C)CCNC(=O)c1cc(-c2ccc(F)cc2)nc2c3c(ccc12)CCCC3`, the IC50 in assay [1] stood at 6.16 µM; in assay [2] it was 12.9 µM; in assay [3], 13.6 µM; in assay [4] it was 18.4 µM.
In the same order, the values of `COc1ccc(-c2cc(C(=O)NCCN(C)C)c3ccc4c(c3n2)CCCC4)cc1` are 1.65 µM, 6.3 µM, 4.96 µM and 7.19 µM.
In the same order, the values of `CN(C)CCNC(=O)c1cc(-c2ccccc2)nc2c1ccc1ccccc12` are 72.6 µM, 33.3 µM, 65.7 µM and 35.6 µM.
Take `COc1cc(-c2cc(C(=O)NCCN(C)C)c3ccc4c(c3n2)CCCC4)cc(OC)c1OC`: the IC50 in assay [1] is 11 µM; in [2], 5.62 µM; in [3], 14.5 µM; in assay [4], 11.6 µM.
In the same order, the values of `CN(C)CCNC(=O)c1cc(-c2ccc(F)cc2)nc2c1ccc1ccccc12` are 14.3 µM, 16.6 µM, 18.4 µM and 5.29 µM.
With `CC(=O)Nc1ccc(-c2cc(C(=O)NCCN(C)C)c3ccc4ccccc4c3n2)cc1`, the IC50 came to 9.34 µM in assay [1], 4.05 µM in assay [2], 7.98 µM in [3] and 7.71 µM in [4].
In the same order, the values of `COc1ccc(-c2cc(C(=O)NCCN(C)C)c3ccc4c(c3n2)CCCC4)cc1OC` are 11.5 µM, 13.8 µM, 15.4 µM and 12.7 µM.
`Cc1ccc(-c2cc(C(=O)NCCN(C)C)c3ccc4ccccc4c3n2)cc1`: the Kb amounted to 2.2 ×10⁴ No_unit in [9] and 8.1 ×10⁴ No_unit in [10]. Further, the Activity result in [11] is “Dose-dependent effect”; in assay [12], 0.22%; in [13], 75.1%; in assay [14] it was 5.48%; in assay [15] it was 0.2%; in assay [16], 0.18%. In addition, the Activity in assay [17] is reported as 24.6%; in assay [18] it was 0.08%; in assay [19] it was 94.1%. Further, the IC50 in assay [1] amounted to 9.08 µM; in assay [2] it was 1.51 µM; in assay [3], 5.89 µM; in assay [4] it was 3.62 µM.
On to `CN(C)CCNC(=O)c1cc(-c2ccccn2)nc2c1ccc1ccccc12`, for which the IC50 in assay [1] was 61.2 µM; in assay [2], above 100 µM; in assay [3], 56.2 µM; in [4], 39.3 µM.
